Test results: patent US10745416B2, “Macrocyclic compounds for treating disease” (Turning Point Therapeutics, Inc., priority 2017, dated 2020)

Tests used:
Test in all cases: Cell proliferation assay (CellTiter-Glo, 72 hours)
[1] = target: T1, BaF3 KIF5B-RET (Homo sapiens, UniProt P07949); type: cell-based; settings: anti-cell proliferation, read-out: BaF3 KIF5B-RET IC50
T1 construct: fused on or other part: P33176 (Kinesin-1 heavy chain)
Source text: (§1) The KIF5B-RET gene was synthesized at GenScript and cloned into pCDH-CMV-MCS-EF1-Puro plasmid (System Biosciences, Inc). KIF5B-RET point mutation V804M was generated at GenScript by PCR and confirmed by sequencing. Ba/F3-KIF5B-RET wild type and mutant were generated by transducing Ba/F3 cells with lentivirus containing KIF5B-RET wide type or mutant. Stable cell lines were selected by puromycin treatment, followed by IL-3 withdrawal. Briefly, 5×10^6 Ba/F3 cells were transduced with lentivirus supernatant in the presence of 8 μg/mL protamine sulfate. The transduced cells were subsequently selected with 1 µg/mL puromycin in the presence of IL3-containing medium RPMI1640, plus 10% FBS. After 10-12 days of selection, the surviving cells were further selected for IL3 independent growth.
(§2) Two thousand cells per well were seeded in 384 well white plate for 24 hrs, and then treated with compounds for 72 hours (37° C., 5% CO2). Cell proliferation was measured using CellTiter-Glo luciferase-based ATP detection assay (Promega) following the manufactures's protocol. IC50 determinations were performed using GraphPad Prism software (GraphPad, Inc., San Diego, Calif.).

[2] = target: T2, BaF3 KIF5B-RET_G810R (Homo sapiens, UniProt P07949, G810R, cells depend on it); type: cell-based; settings: anti-cell proliferation, read-out: BaF3 KIF5B-RET_G810R IC50
T2 construct: fused on or other part: P33176 (Kinesin-1 heavy chain)
T2 sequence (P07949 whole entry G810R, the tested form may be a part): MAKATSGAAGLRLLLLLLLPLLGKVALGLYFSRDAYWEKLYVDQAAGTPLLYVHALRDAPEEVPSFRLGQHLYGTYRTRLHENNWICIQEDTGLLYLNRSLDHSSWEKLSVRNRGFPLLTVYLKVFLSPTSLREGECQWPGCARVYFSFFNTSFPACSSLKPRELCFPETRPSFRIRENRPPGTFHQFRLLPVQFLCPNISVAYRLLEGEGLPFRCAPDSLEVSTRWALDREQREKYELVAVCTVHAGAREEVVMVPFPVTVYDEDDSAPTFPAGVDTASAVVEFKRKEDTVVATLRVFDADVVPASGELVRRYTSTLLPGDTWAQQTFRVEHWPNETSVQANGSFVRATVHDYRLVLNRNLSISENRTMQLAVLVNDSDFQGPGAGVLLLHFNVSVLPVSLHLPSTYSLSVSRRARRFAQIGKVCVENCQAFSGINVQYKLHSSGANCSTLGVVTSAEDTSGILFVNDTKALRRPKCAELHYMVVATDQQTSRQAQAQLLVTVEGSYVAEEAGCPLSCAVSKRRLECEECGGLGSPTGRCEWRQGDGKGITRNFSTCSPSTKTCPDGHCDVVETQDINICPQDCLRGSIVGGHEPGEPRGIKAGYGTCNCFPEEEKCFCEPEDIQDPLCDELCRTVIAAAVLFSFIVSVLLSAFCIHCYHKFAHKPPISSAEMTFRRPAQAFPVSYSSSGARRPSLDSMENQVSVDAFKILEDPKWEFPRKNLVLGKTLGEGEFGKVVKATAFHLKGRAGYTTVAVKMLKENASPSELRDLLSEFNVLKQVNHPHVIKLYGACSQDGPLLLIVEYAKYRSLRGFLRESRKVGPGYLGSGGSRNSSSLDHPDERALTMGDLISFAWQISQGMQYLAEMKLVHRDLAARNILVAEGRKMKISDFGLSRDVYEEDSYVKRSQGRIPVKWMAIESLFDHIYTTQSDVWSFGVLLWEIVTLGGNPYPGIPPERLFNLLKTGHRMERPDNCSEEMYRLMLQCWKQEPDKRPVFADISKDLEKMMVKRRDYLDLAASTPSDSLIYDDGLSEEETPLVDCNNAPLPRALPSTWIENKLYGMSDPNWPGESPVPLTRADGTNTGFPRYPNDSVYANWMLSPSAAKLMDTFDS
Source text: [The source words this procedure for another variant and reports this variant under the same test.] as §1, §2

[3] = target: T3, BaF3 KIF5B-RET_V804M (Homo sapiens, UniProt P07949, V804M, cells depend on it); type: cell-based; settings: anti-cell proliferation, read-out: BaF3 KIF5B-RET_V804M IC50
T3 construct: fused on or other part: P33176 (Kinesin-1 heavy chain)
T3 sequence (P07949 whole entry V804M, the tested form may be a part): as the sequence (P07949 whole entry G810R, the tested form may be a part) above, with V804M, R810G counted along it
Source text: as §1, §2

[4] = target: T4, BaF3 EML4-ALK (Homo sapiens, UniProt Q9UM73); type: cell-based; settings: anti-cell proliferation
T4 construct: The EML4-ALK gene (variant 1) was synthesized at GenScript and cloned into pCDH-CMV-MCS-EF1-Puro plasmid (System Biosciences, Inc); fused on or other part: Q9HC35 (Echinoderm microtubule-associated protein-like 4)
T4 sequence (Q9UM73 whole entry, change not shown, the tested form may be a part): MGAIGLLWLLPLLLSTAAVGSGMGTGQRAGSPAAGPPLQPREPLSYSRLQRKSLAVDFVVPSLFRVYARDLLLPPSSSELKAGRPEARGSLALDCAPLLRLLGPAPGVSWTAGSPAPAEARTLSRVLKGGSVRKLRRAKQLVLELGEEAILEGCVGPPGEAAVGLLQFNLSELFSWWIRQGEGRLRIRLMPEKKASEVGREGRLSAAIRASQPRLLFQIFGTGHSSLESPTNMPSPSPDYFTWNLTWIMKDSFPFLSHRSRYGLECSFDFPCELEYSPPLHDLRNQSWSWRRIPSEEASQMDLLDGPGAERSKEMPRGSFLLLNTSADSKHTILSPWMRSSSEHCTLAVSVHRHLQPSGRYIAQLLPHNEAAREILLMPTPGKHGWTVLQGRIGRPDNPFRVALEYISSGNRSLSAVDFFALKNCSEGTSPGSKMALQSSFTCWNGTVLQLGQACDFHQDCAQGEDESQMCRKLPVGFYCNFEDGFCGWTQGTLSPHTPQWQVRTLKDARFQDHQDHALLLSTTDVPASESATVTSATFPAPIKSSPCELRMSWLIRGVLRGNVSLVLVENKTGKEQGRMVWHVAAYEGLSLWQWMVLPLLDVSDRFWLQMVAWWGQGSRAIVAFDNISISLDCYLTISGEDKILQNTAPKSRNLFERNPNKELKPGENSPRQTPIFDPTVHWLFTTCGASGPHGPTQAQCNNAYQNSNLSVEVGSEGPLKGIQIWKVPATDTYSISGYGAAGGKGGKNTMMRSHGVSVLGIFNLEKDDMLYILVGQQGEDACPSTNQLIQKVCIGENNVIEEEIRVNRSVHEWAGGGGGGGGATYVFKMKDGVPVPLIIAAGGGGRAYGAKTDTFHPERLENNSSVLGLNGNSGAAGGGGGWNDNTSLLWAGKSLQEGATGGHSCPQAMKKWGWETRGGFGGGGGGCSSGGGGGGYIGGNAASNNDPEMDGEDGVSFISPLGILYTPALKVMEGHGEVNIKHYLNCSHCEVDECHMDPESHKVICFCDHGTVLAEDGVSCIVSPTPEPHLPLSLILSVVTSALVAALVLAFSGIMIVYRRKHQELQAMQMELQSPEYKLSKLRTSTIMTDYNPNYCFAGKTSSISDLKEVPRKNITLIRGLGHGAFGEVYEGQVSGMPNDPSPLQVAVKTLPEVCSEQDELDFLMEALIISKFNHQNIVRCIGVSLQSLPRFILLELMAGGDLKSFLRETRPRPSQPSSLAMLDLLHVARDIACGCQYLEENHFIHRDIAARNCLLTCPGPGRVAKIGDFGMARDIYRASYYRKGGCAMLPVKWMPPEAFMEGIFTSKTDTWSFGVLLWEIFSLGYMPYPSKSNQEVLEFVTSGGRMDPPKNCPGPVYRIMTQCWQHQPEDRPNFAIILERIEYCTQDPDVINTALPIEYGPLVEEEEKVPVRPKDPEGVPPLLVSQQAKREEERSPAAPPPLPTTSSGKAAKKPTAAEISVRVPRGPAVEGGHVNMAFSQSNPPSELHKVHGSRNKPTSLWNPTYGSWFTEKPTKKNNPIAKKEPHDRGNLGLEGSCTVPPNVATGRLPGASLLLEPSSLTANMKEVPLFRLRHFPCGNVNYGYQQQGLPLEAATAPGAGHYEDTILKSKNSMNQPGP
Procedure: The EML4-ALK gene (variant 1) was synthesized at GenScript and cloned into pCDH-CMV-MCS-EF1-Puro plasmid (System Biosciences, Inc). Ba/F3-EML4-ALK wild type were generated by transducing Ba/F3 cells with lentivirus containing EML4-ALK wide type. Stable cell lines were selected by puromycin treatment, followed by IL-3 withdrawal. Briefly, 5×10^6 Ba/F3 cells were transduced with lentivirus supernatant in the presence of 8 μg/mL protamine sulfate. The transduced cells were subsequently selected with 1 μg/mL puromycin in the presence of IL3-containing medium RPMI1640, plus 10% FBS. After 10-12 days of selection, the surviving cells were further selected for IL3 independent growth.
as §2

[5] = tested on: KG-1; type: cell-based, human; settings: Homo sapiens, KG-1, anti-cell proliferation
Procedure: (§3) Human medulla thyroid carcinoma cell line TT (containing RET […] mutation) and acute myelogenous cell line KG-1 were purchased from ATCC. Human colon cancer cell line KMI2 (containing TPM3-TRKA) was obtained from NCI.
as §2

[6] = tested on: KM12 cell (TPM3-TRKA); type: cell-based, human; settings: Homo sapiens, KM12, anti-cell proliferation
Procedure: as §3, §2

T1 sequence (P07949 whole entry, change not shown, the tested form may be a part): as the sequence (P07949 whole entry G810R, the tested form may be a part) above, with R810G counted along it

GI50 [1] [nM]	GI50 [2] [nM]	GI50 [3] [nM]	GI50 [4] [nM]	Compound	IC50 [5] [nM]	IC50 [6] [nM]
193	559	3000	3000	O=C1NC2(COc3ncc(F)cc3CN3c4nc5c1cnn5cc4O[C@H]1CCC[C@H]13)CC(F)(F)C2 [Compound 25, (3a′R,20a′S)-3,3,7′-trifluoro-1′H,2′H, 3′H,3a′H,5′H,11′H,13′H,14′H,20a′H-spiro[cyclobutane-1,12′-[10,20]dioxa[4,9,13,16,17,18][hexaaza [17,19](metheno)cyclopenta[5,6][1,4]oxazino[3,4-i]pyrazolo[4,3-f]pyrido [3,2-l][1,4,8,10]oxatriazacyclotridecin]-14′-one]	677	277
160	323	5000	1410	O=C1NC2(CCCC2)COc2ncc(F)cc2CN2c3nc4c1cnn4cc3O[C@H]1CCC[C@H]12 [Compound 26, (3a′R,20a′S)-7′-fluoro-1′H,2′H, 3′H,3a′H,5′H,11′H,13′H,14′H,20a′H-spiro[cyclopentane-1,12′-[10,20]dioxa[4,9,13,16,17,18][hexaaza [17,19](metheno)cyclopenta[5,6][1,4]oxazino[3,4-i]pyrazolo[4,3-f]pyrido [3,2-l][1,4,8,10]oxatriazacyclotridecin]-14′-one]	737	210
< 0.2	63	2000	1000	CC1(C)CNC(=O)c2cnn3cc4c(nc23)N(Cc2cc(F)cnc2OC1)[C@@H]1CCC[C@@H]1O4 [Compound 27, (3aR,21aS)-7-fluoro-12,12-dimethyl-2,3,3a,11,12,13,14,21a-octahydro-1H,5H,15H-18,20-(metheno)cyclopenta[5,6][1,4]oxazino[4,3-e]pyrazolo[3,4-h]pyrido[2,3-b][1,5,7,11]oxatriazacyclotetradecin-15-one]	0.3	0.3
1.5	72	2000	803	C[C@H]1CCOc2ncc(F)cc2CN2c3nc4c(cnn4cc3O[C@H]3CCC[C@H]32)C(=O)N1 [Compound 28, (3aR,13S,21aS)-7-fluoro-13-methyl-2,3,3a,11,12,13,14,21a-octahydro-1H,5H,15H-18,20-(metheno)cyclopenta[5,6][1,4]oxazino[4,3-e]pyrazolo[3,4-h]pyrido[2,3-b][1,5,7,11]oxatriazacyclotetradecin-15-one]	22.8	11.8
0.3	134	1380	901	CC1CNC(=O)c2cnn3cc4c(nc23)N(Cc2cc(F)cnc2OC1)[C@@H]1CCC[C@@H]1O4 (stereo partly drawn) [Compound 29, (3aR,21aS)-7-fluoro-12-methyl-2,3,3a,11,12,13,14,21a-octahydro-1H,5H,15H-18,20-(metheno)cyclopenta[5,6][1,4]oxazino[4,3-e]pyrazolo[3,4-h]pyrido[2,3-b][1,5,7,11]oxatriazacyclotetradecin-15-one]	7.9	1.7
162	1860	337	2000	C[C@H]1CNC(=O)c2cnn3cc4c(nc23)N(Cc2cc(F)cnc2O1)[C@@H]1COC[C@@H]1O4 [Compound 30, (3aR,11S,20aR)-7-fluoro-11-methyl-1,3,3a,12,13,20a-hexahydro-5H-17,19-(metheno)furo[3′,4′:5,6][1,4]oxazino[3,4-i]pyrazolo[4,3-f]pyrido[3,2-l][1,4,8,10]oxatriazacyclotridecin-14(11H)-one]	853	13.5
89	501	5720	1060	O=C1NC[C@H](O)COc2ncc(F)cc2CN2c3nc4c1cnn4cc3O[C@H]1CCC[C@H]12 [Compound 32, (3aR,12S,21aS)-7-fluoro-12-hydroxy-2,3,3a,11,12,13,14,21a-octahydro-1H,5H,15H-18,20-(metheno)cyclopenta[5,6][1,4]oxazino[4,3-e]pyrazolo[3,4-h]pyrido[2,3-b][1,5,7,11]oxatriazacyclotetradecin-15-one]	223	20.2
198	1200	4000	2000	O=C1NCC(O)(O)COc2ncc(F)cc2CN2c3nc4c1cnn4cc3O[C@H]1CCC[C@H]12 [Compound 33, (3aR,21aS)-7-fluoro-12,12-dihydroxy-2,3,3a,11,12,13,14,21a-octahydro-1H,5H,15H-18,20-(metheno)cyclopenta[5,6][1,4]oxazino[4,3-e]pyrazolo[3,4-h]pyrido[2,3-b][1,5,7,11]oxatriazacyclotetradecin-15-one]	356	124
< 0.2	0.3	349	82.1	O=C1NC[C@H](F)COc2ncc(F)cc2CN2c3nc4c1cnn4cc3O[C@H]1CCC[C@H]12 [Compound 38, (3aR,12S,21aS)-7,12-difluoro-2,3,3a,11,12,13,21a-octahydro-1H,5H, 15H-18,20-(metheno)cyclopenta[5,6][1,4] oxazino[4,3-e]pyrazolo[3,4-h]pyrido[2,3-b][1,5,7,11]oxatriazacyclotetradecin-15-one]	< 0.2	< 0.2
10.2	57.3	3000	152	O=C1NC[C@@H](F)COc2ncc(F)cc2CN2c3nc4c1cnn4cc3O[C@H]1CCC[C@H]12 [Compound 39, 3aR,12R,21aS)-7,12-difluoro-2,3,3a,11,12,13,21a-octahydro-1H,5H, 15H-18,20-(metheno)cyclopenta[5,6][1,4] oxazino[4,3-e]pyrazolo[3,4-h]pyrido[2,3-b][1,5,7,11]oxatriazacyclotetradecin-15-one]	59.2	7.4
< 0.2	1.8	5000	1950	O=C1NCC(F)(F)COc2ncc(F)cc2CN2c3nc4c1cnn4cc3O[C@H]1CCC[C@H]12 [Compound 40, (3aR,21aS)-7,12,12-trifluoro-2,3,3a,11,12,13,14,21a-octahydro-1H,5H, 15H-18,20-(metheno)cyclopenta[5,6][1,4] oxazino[4,3-e]pyrazolo[3,4-h]pyrido[2,3-b][1,5,7,11]oxatriazacyclotetradecin-15-one]	19.1	< 0.2
> 10000	> 10000	> 10000	> 10000	C[C@@H]1CNC(=O)c2cnn3cc4c(nc23)N(Cc2cc(F)cnc2O1)[C@H]1CCC[C@H]1O4 [Compound 44, (3aS,11R,20aR)-7-fluoro-11-methyl-2,3 3a,12,13,20a-hexahydro-1H,5H-17,19-(metheno)cyclopenta[5,6][1,4] oxazino[3,4-i]pyrazolo[4,3-f]pyrido[3,2-l][1,4,8,10]oxatriazacyclotridecin-14(11H)-one]	> 10000	668
526	1710	5000	3110	O=C1NC2(CCC2)CCOc2ncc(F)cc2CN2c3nc4c1cnn4cc3O[C@H]1CCC[C@H]12 [Compound 45]	1130	202
